Experiment [1] relates to T47D (PI3Kα-H1047R) cell line. The experiment in a line: HTRF phospho-AKT(S473) cell assay in T47D cells. The format is cell-based, human. The conditions noted are these: Homo sapiens, 2 hours compound incubation. Put shortly:
(§1)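 T47D (PI3Kα-H1047R; RPMI, 10% FBS, insulin) and SKBR3 (wild-type PI3Kα; McCoy's 5A, 10% FBS) cells treated 2 h at 37 °C with 12-point 1:3 dilutions, top 5 μM and 10 μM respectively, ≤0.5% DMSO. SKBR3 stimulated with 70 ng/ml PDGF-BB for the last 15 min; lysate pAKT(S473) by HTRF, IC50 from curves.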

Experiment [2] has as its system SKBR3 (PI3Kα-Wild Type) cell line. The experiment in a line: HTRF phospho-AKT(S473) cell assay in SKBR3 cells. The format is cell-based, human. Particulars: Homo sapiens, SK-BR-3, 2 hours compound incubation, PDGF-BB stimulated. Put shortly:
as §1

[3] abbreviates: HTRF phospho-AKT(S473), T47D (PI3Kα-H1047R) cells.
Setting [4] is: HTRF phospho-AKT(S473), SKBR3 (PI3Kα-Wild Type) cells.
[5] abbreviates: T47D (PI3Kα-H1047R) cells, HTRF phospho-AKT(S473).
[6] abbreviates: SKBR3 (PI3Kα-Wild Type) cells, HTRF phospho-AKT(S473).

The record followed here is US12281122B1, “PI3K inhibitors” (Cogent Biosciences, Inc., priority 2023, dated 2025).

Molecules are shown by their SMILES.

With `CCn1c(N2C[C@@H]3[C@H](C2)[C@H]3c2cn(C)nn2)nc2c([C@@H](C)Nc3ccc(Cl)nc3C(=O)NS(C)(=O)=O)cc(C)cc2c1=O` [Compound 622, 6-chloro-3-(((R)-1-(3-ethyl-6-methyl-2-((1R,5S,6R)-6-(1-methyl-1H-1,2,3-triazol-4-yl)-3-azabicyclo[3.1.0]hexan-3-yl)-4-oxo-3,4-dihydroquinazolin-8-yl)ethyl)amino)-N-(methylsulfonyl) picolinamide], the IC50 was under 250 nM in experiment [1] (setting [3]) and 1000 to 5000 nM in experiment [2] (setting [4]).

In the case of `Cc1cc([C@@H](C)Nc2ccc(Cl)nc2C(=O)NS(=O)(=O)NC2CC2)c2nc(N3Cc4ccc(F)cc4C3)n(C)c(=O)c2c1` [Compound 152, (R)-6-chloro-N-(N-cyclopropylsulfamoyl)-3-((1-(2-(5-fluoroisoindolin-2-yl)-3,6-dimethyl-4-oxo-3,4-dihydroquinazolin-8-yl)ethyl)amino)picolinamide], the IC50 is 250 to 500 nM in experiment [1] (setting [5]) and at least 5000 nM in experiment [2] (setting [6]).

For `Cc1cc([C@@H](C)Nc2ccc(Cl)nc2C(=O)NS(C)(=O)=O)c2nc(N3CCC(c4n[nH]cc4Cl)CC3)n(C)c(=O)c2c1` [Compound 717, (R)-6-chloro-3-((1-(2-(4-(4-chloro-1H-pyrazol-3-yl)piperidin-1-yl)-3,6-dimethyl-4-oxo-3,4-dihydroquinazolin-8-yl)ethyl)amino)-N-(methylsulfonyl) picolinamide], the figures for the half-inhibitory concentration (IC50) in experiment [1] (setting [3]) and in experiment [2] (setting [4]) were 250 to 500 nM and at least 5000 nM, respectively.

Consider `Cc1cc([C@@H](C)Nc2ccc(Cl)nc2C(=O)NS(C)(=O)=O)c2nc(N3CCC[C@H](c4cnn(C)c4)C3)n(C)c(=O)c2c1` (relative stereo) [Compound 194, 6-chloro-3-(((R)-1-(3,6-dimethyl-2-((R*)-3-(1-methyl-1H-pyrazol-4-yl)piperidin-1-yl)-4-oxo-3,4-dihydroquinazolin-8-yl)ethyl)amino)-N-(methylsulfonyl) picolinamide], for which the IC50 is under 250 nM in experiment [1] (setting [5]) and 1000 to 5000 nM in experiment [2] (setting [6]).

For `Cc1cc([C@@H](C)Nc2ccc(Cl)nc2C(=O)NS(C)(=O)=O)c2nc(N3C[C@@H]4[C@H](C3)[C@H]4c3ccn(C4CC4)n3)n(C)c(=O)c2c1` [Compound 475, 6-chloro-3-(((R)-1-(2-((1R,5S,6R)-6-(1-cyclopropyl-1H-pyrazol-3-yl)-3-azabicyclo[3.1.0]hexan-3-yl)-3,6-dimethyl-4-oxo-3,4-dihydroquinazolin-8-yl)ethyl)amino)-N-(methylsulfonyl) picolinamide], the IC50 in experiment [1] (setting [3]) lay within 250 to 500 nM; in experiment [2] (setting [4]) it was 1000 to 5000 nM.

On to `Cc1cc([C@@H](C)Nc2ccc(Cl)nc2C(=O)NS(C)(=O)=O)c2nc(N3Cc4cn(-c5ccccc5)nc4C3)n(C)c(=O)c2c1` [Compound 147, (R)-6-chloro-3-((1-(3,6-dimethyl-4-oxo-2-(2-phenyl-2,6-dihydropyrrolo[3,4-c]pyrazol-5(4H)-yl)-3,4-dihydroquinazolin-8-yl)ethyl)amino)-N-(methylsulfonyl) picolinamide], for which the IC50 is 250 to 500 nM in experiment [1] (setting [5]) and at least 5000 nM in experiment [2] (setting [6]).

Consider `Cc1cc([C@@H](C)Nc2ccc(Cl)nc2C(=O)NS(C)(=O)=O)c2nc(N3CCC(c4cccc(=O)n4C)CC3)n(C)c(=O)c2c1` [Compound 370, (R)-6-chloro-3-((1-(3,6-dimethyl-2-(4-(1-methyl-6-oxo-1,6-dihydropyridin-2-yl)piperidin-1-yl)-4-oxo-3,4-dihydroquinazolin-8-yl)ethyl)amino)-N-(methylsulfonyl) picolinamide], for which the half-inhibitory concentration (IC50) in experiment [1] (setting [5]) was under 250 nM; in experiment [2] (setting [6]) it was 1000 to 5000 nM.

On to `Cc1cc([C@@H](C)Nc2ccc(Cl)nc2C(=O)NS(C)(=O)=O)c2nc(N3CCC(c4ncc(C)o4)CC3)n(C)c(=O)c2c1` [Compound 728, (R)-6-chloro-3-((1-(3,6-dimethyl-2-(4-(5-methyloxazol-2-yl)piperidin-1-yl)-4-oxo-3,4-dihydroquinazolin-8-yl)ethyl)amino)-N-(methylsulfonyl) picolinamide], for which the half-maximal inhibitory concentration (IC50) in experiment [1] (setting [3]) lay within 250 to 500 nM; in experiment [2] (setting [4]), 1000 to 5000 nM.

In the case of `Cc1cc([C@@H](C)Nc2ccc(Cl)nc2C(=O)NS(C)(=O)=O)c2nc(N3C[C@@H]4[C@H](C3)[C@H]4c3ncc(C)o3)n(C)c(=O)c2c1` [Compound 653, 6-chloro-3-(((R)-1-(3,6-dimethyl-2-((1R,5S,6R)-6-(5-methyloxazol-2-yl)-3-azabicyclo[3.1.0]hexan-3-yl)-4-oxo-3,4-dihydroquinazolin-8-yl)ethyl)amino)-N-(methylsulfonyl) picolinamide], the half-inhibitory concentration (IC50) fell in the range of 250 to 500 nM in experiment [1] (setting [3]) and 1000 to 5000 nM in experiment [2] (setting [4]).

`C[C@@H](Nc1ccc(Cl)nc1C(=O)NS(C)(=O)=O)c1cc(F)cc2c(=O)n(C)c(N3CCC(c4nn(C)cc4F)CC3)nc12` [Compound 364, (R)-6-chloro-3-((1-(6-fluoro-2-(4-(4-fluoro-1-methyl-1H-pyrazol-3-yl)piperidin-1-yl)-3-methyl-4-oxo-3,4-dihydroquinazolin-8-yl)ethyl)amino)-N-(methylsulfonyl) picolinamide]: the concentration for half-maximal inhibition (IC50) in experiment [1] (setting [5]) is 250 to 500 nM; in experiment [2] (setting [6]) it was 1000 to 5000 nM.

Take `Cc1cc([C@@H](C)Nc2ccc(Cl)nc2C(=O)NS(C)(=O)=O)c2nc(N3CCC(c4cnn(C(C)C)n4)CC3)n(C)c(=O)c2c1` [Compound 744, (R)-6-chloro-3-((1-(2-(4-(2-isopropyl-2H-1,2,3-triazol-4-yl)piperidin-1-yl)-3,6-dimethyl-4-oxo-3,4-dihydroquinazolin-8-yl)ethyl)amino)-N-(methylsulfonyl) picolinamide]: the figures for the IC50 in experiment [1] (setting [3]) and in experiment [2] (setting [4]) were 250 to 500 nM and at least 5000 nM, respectively.

Regarding `Cc1cc([C@@H](C)Nc2ccc(Cl)nc2C(=O)NS(C)(=O)=O)c2nc(-c3ccc4nn(C5COC5)cc4c3)n(C)c(=O)c2c1` [Compound 792, (R)-6-chloro-3-((1-(3,6-dimethyl-2-(2-(oxetan-3-yl)-2H-indazol-5-yl)-4-oxo-3,4-dihydroquinazolin-8-yl)ethyl)amino)-N-(methylsulfonyl) picolinamide], the concentration for half-maximal inhibition (IC50) in experiment [1] (setting [3]) is under 250 nM; in experiment [2] (setting [4]) it was 1000 to 5000 nM.

As for `Cc1cnc(-c2ccc(-c3nc4c([C@@H](C)Nc5ccc(Cl)nc5C(=O)NS(C)(=O)=O)cc(C)cc4c(=O)n3C)cn2)nc1` [Compound 851, (R)-6-chloro-3-((1-(3,6-dimethyl-2-(6-(5-methylpyrimidin-2-yl)pyridin-3-yl)-4-oxo-3,4-dihydroquinazolin-8-yl)ethyl)amino)-N-(methylsulfonyl) picolinamide], the 50% inhibitory concentration (IC50) in experiment [1] (T47D (PI3Kα-H1047R) cell line, phospho-AKT(S473) HTRF) lay in the range of 250 to 500 nM; in experiment [2] (SKBR3 (PI3Kα-Wild Type) cell line, phospho-AKT(S473) HTRF), 1000 to 5000 nM.

On to `Cc1cc([C@@H](C)Nc2ccc(Cl)nc2C(=O)NS(C)(=O)=O)c2nc(N3C[C@@H]4[C@H](C3)[C@H]4c3n[nH]cc3C)n(C)c(=O)c2c1` [Compound 651, 6-chloro-3-(((R)-1-(3,6-dimethyl-2-((1R,5S,6R)-6-(4-methyl-1H-pyrazol-3-yl)-3-azabicyclo[3.1.0]hexan-3-yl)-4-oxo-3,4-dihydroquinazolin-8-yl)ethyl)amino)-N-(methylsulfonyl) picolinamide], for which the IC50 lay within 250 to 500 nM in experiment [1] (setting [3]) and 1000 to 5000 nM in experiment [2] (setting [4]).

`CCn1c(N2Cc3cnn(CC(F)(F)F)c3C2)nc2c([C@@H](C)Nc3ccc(Cl)nc3C(=O)NS(C)(=O)=O)cc(C)cc2c1=O` [Compound 733, (R)-6-chloro-3-((1-(3-ethyl-6-methyl-4-oxo-2-(1-(2,2,2-trifluoroethyl)-4,6-dihydropyrrolo[3,4-c]pyrazol-5(1H)-yl)-3,4-dihydroquinazolin-8-yl)ethyl)amino)-N-(methylsulfonyl) picolinamide]: the figures for the IC50 in experiment [1] (setting [3]) and in experiment [2] (setting [4]) were 500 to 1000 nM and 1000 to 5000 nM, respectively.

Consider `Cc1cc([C@@H](C)Nc2ccc(Cl)nc2C(=O)NS(C)(=O)=O)c2nc(N3CCN(c4ccccn4)CC3)n(C)c(=O)c2c1` [Compound 182, (R)-6-chloro-3-((1-(3,6-dimethyl-4-oxo-2-(4-(pyridin-2-yl)piperazin-1-yl)-3,4-dihydroquinazolin-8-yl)ethyl)amino)-N-(methylsulfonyl) picolinamide], for which the results for the IC50 in experiment [1] (setting [5]) and in experiment [2] (setting [6]) were under 250 nM and 1000 to 5000 nM, respectively.

For the compound `C[C@@H](Nc1ccc(Cl)nc1C(=O)NS(C)(=O)=O)c1cc(F)cc2c(=O)n(C)c(N3CC[C@@H](Oc4cnn(C)c4)C3)nc12` [Compound 560, 6-chloro-3-(((R)-1-(6-fluoro-3-methyl-2-((R)-3-((1-methyl-1H-pyrazol-4-yl)oxy)pyrrolidin-1-yl)-4-oxo-3,4-dihydroquinazolin-8-yl)ethyl)amino)-N-(methylsulfonyl) picolinamide], the IC50 is under 250 nM in experiment [1] (setting [3]) and 1000 to 5000 nM in experiment [2] (setting [4]).

For `Cc1ccn(C2CCN(c3nc4c([C@@H](C)Nc5ccc(Cl)nc5C(=O)NS(C)(=O)=O)cc(C)cc4c(=O)n3C)CC2)c(=O)c1` [Compound 753, (R)-6-chloro-3-((1-(3,6-dimethyl-2-(4-(4-methyl-2-oxopyridin-1(2H)-yl)piperidin-1-yl)-4-oxo-3,4-dihydroquinazolin-8-yl)ethyl)amino)-N-(methylsulfonyl) picolinamide], the half-inhibitory concentration (IC50) in experiment [1] (setting [3]) was under 250 nM; in experiment [2] (setting [4]), 1000 to 5000 nM.

Take `Cc1cc([C@@H](C)Nc2ccc(Cl)nc2C(=O)NS(C)(=O)=O)c2nc(N3CCC(c4cc(C#N)n(C)n4)CC3)n(C)c(=O)c2c1` [Compound 357, (R)-6-chloro-3-((1-(2-(4-(5-cyano-1-methyl-1H-pyrazol-3-yl)piperidin-1-yl)-3,6-dimethyl-4-oxo-3,4-dihydroquinazolin-8-yl)ethyl)amino)-N-(methylsulfonyl) picolinamide]: the half-maximal inhibitory concentration (IC50) in experiment [1] (setting [5]) was under 250 nM; in experiment [2] (setting [6]), 1000 to 5000 nM.
